Laboratory results as given in patent US20090148886A1, “METHODS OF IDENTIFYING COMPOUNDS THAT DECREASE INTRAOCULAR PRESSURE” (The Arizona Board of Regents on behalf of the University of …, priority 2007, published 2009).

System: C57BL/6 mice and Best2^+/+, Best2^+/−, Best2^−/− littermates
Assay: IOP measurement by cannulation of the anterior chamber in control and drug-treated Best2 mice
Assay type: in vivo, mouse
Conditions: for Mean IOP: 10 μL of solution topically to each eye 2 hours before cannulation, mean ± SE
Protocol: IOP Measurements: IOP was measured in the mice by cannulation of the anterior chamber with Avertin® anesthesia (300 mg/kg injected intraperitoneally) as described in, e.g., Husain et al., Exp. Eye Res. 83:1453-1458, 2006; John et al., Invest. Ophthalmol. Vis. Sci. 38:249-253, 1997; Aihara et al., Invest. Ophthalmol. Vis. Sci. 44:5168-5173, 2003. In brief, the anterior chamber was cannulated with a borosilicate glass microneedle (1-mm outer diameter with a 50-μm inner diameter tip, beveled to 45°; Humagen, Charlottesville, Va.) filled with Hanks' balanced salt solution (HBSS) and connected to a pressure transducer (BLPR; World Precision Instruments, Sarasota, Fla.). The signal was amplified (Bridge8 amplifier; World Precision Instruments), converted from analog to digital (iWorx® model 108 converter; CB Sciences, Dover, N.H.), and recorded (LabScribe software ver. 1.6; CB Sciences, Dover, N.H.). IOP was recorded for a period of >90 seconds, and the IOP value determined from the average of each recording. […] All measurements were performed between 2 and 6 PM to avoid diurnal pressure variations. The apparatus was calibrated using a fluid reservoir the height of which could be adjusted to generate a series of known pressures. For experiments using timolol (0.5% solution; Bausch & Lomb, Tampa, Fla.) or brinzolamide (Azopt® 1% solution; Alcon, Fort Worth, Tex.), 10 μL of solution was administrated topically to each eye 2 hours before cannulation.

Structure (SMILES)	IOP after treatment compared with treated C57BL/6 or Best2^+/+ mice (Best2^+/+ (so in the source) and Best2^−/− mice, lower than in C57BL/6 or Best2^+/+ mice)	Mean IOP (Best2^+/+ mice) [mm Hg]	Mean IOP (Best2^+/− mice) [mm Hg]	Mean IOP (Best2^−/− mice) [mm Hg]	Mean IOP (C57BL/6 mice) [mm Hg]	Effect on IOP (in words) (all mice tested)	Effect on IOP (in words) (Best2^−/− mice)	Effect on IOP (in words) (C57BL/6 and Best2^+/+ mice, P<0.005)
CCN[C@H]1CN(CCCOC)S(=O)(=O)c2sc(S(N)(=O)=O)cc21 [Brinzolamide, brinzolamide]	approximately 1 mm Hg	10.08 ± 0.33	9.56 ± 0.37	9.34 ± 0.34	10.51 ± 0.51	effective in lowering IOP in all mice tested	–	–
CC(C)(C)NC[C@H](O)COc1nsnc1N1CCOCC1 [Timolol, timolol]	–	9.57 ± 0.22	9.48 ± 0.12	9.49 ± 0.18	10.53 ± 0.29	–	less effective in lowering IOP	lowered IOP significantly
